{
  "source": "patent US12655130B2",
  "about": "(ASSEMBLY BIOSCIENCES, INC., priority 2020, dated 2026)",
  "system": "HBV viral load (viral production from HepAD38 cells)",
  "assay": "Activity of test compounds on viral production from HepAD38 cells (viral load by qPCR of HBV core sequence)",
  "assay_type": "cell-based",
  "conditions": "Hepatitis B virus, HePAD38, 120 h, viral load lowering, 5 days, qPCR of supernatant, read-out: VL HepAD38 EC50 range",
  "procedure,_shortened": "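HepAD38 cells seeded at 50,000/well in tetracycline-free medium with 2% FBS, treated 5 days at 37 °C with compounds from 10 μM top concentration. Supernatant HBV DNA quantified by TaqMan qPCR of core sequence against HBV DNA standards, relative to DMSO wells; viability by CellTiter-Glo; EC50/CC50 by four-parameter logistic fit.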",
  "data": [
    {"compound": "CNS(=O)(=O)Nc1cc(C2(O)CC3CC(c4ncn(C)c4C(=O)Nc4ccc(F)c(Cl)c4)CC3C2)n(C)n1", "note": "(stereo not shown) [Example 201, N-(3-Chloro-4-fluorophenyl)-4-(5-hydroxy-5-(1-methyl-3-((N-methylsulfamoyl)amino)-1H-pyrazol-5-yl)octahydropentalen-2-yl)-1-methyl-1H-imidazole-5-carboxamide]", "values": [
      {"measurement": "EC50", "value": "< 10", "unit": "nM"}
    ]},
    {"compound": "CC(CO)Oc1cc(C2(O)CC3CC(c4ncn(C)c4C(=O)Nc4ccc(F)c(Cl)c4)CC3C2)n(C)n1", "note": "(stereo not shown) [Example 202, N-(3-Chloro-4-fluorophenyl)-4-(5-hydroxy-5-(3-((1-hydroxypropan-2-yl)oxy)-1-methyl-1H-pyrazol-5-yl)octahydropentalen-2-yl)-1-methyl-1H-imidazole-5-carboxamide]", "values": [
      {"measurement": "EC50", "value": "< 10", "unit": "nM"}
    ]},
    {"compound": "CCC(O)COc1cc(C2(O)CC3CC(c4ncn(C)c4C(=O)Nc4ccc(F)c(Cl)c4)CC3C2)n(C)n1", "note": "(stereo not shown) [Example 203, N-(3-Chloro-4-fluorophenyl)-4-(5-hydroxy-5-(3-(2-hydroxybutoxy)-1-methyl-1H-pyrazol-5-yl)octahydropentalen-2-yl)-1-methyl-1H-imidazole-5-carboxamide]", "values": [
      {"measurement": "EC50", "value": "< 10", "unit": "nM"}
    ]},
    {"compound": "Cn1cnc(C2CC3CC(O)(c4cc(OCC(O)CO)nn4C)CC3C2)c1C(=O)Nc1ccc(F)c(Cl)c1", "note": "(stereo not shown) [Example 204, N-(3-Chloro-4-fluorophenyl)-4-(5-(3-(2,3-dihydroxypropoxy)-1-methyl-1H-pyrazol-5-yl)-5-hydroxyoctahydropentalen-2-yl)-1-methyl-1H-imidazole-5-carboxamide]", "values": [
      {"measurement": "EC50", "value": "< 10", "unit": "nM"}
    ]},
    {"compound": "Cn1cnc(C2CC3CC(O)(c4cc(OCC(O)C(F)(F)F)nn4C)CC3C2)c1C(=O)Nc1ccc(F)c(Cl)c1", "note": "(stereo not shown) [Example 207, N-(3-Chloro-4-fluorophenyl)-4-(5-hydroxy-5-(1-methyl-3-(3,3,3-trifluoro-2-hydroxypropoxy)-1H-pyrazol-5-yl)octahydropentalen-2-yl)-1-methyl-1H-imidazole-5-carboxamide]", "values": [
      {"measurement": "EC50", "value": "< 10", "unit": "nM"}
    ]},
    {"compound": "CC(O)COc1cc(C2(O)CC3CC(c4ncn(C)c4C(=O)Nc4ccc(F)c(Cl)c4)CC3C2)n(C)n1", "note": "(stereo not shown) [Example 208, N-(3-Chloro-4-fluorophenyl)-4-(5-hydroxy-5-(3-(2-hydroxypropoxy)-1-methyl-1H-pyrazol-5-yl)octahydropentalen-2-yl)-1-methyl-1H-imidazole-5-carboxamide]", "values": [
      {"measurement": "EC50", "value": "< 10", "unit": "nM"}
    ]},
    {"compound": "CC(CO)COc1cc(C2(O)CC3CC(c4ncn(C)c4C(=O)Nc4ccc(F)c(Cl)c4)CC3C2)n(C)n1", "note": "(stereo not shown) [Example 211, N-(3-Chloro-4-fluorophenyl)-4-(5-hydroxy-5-(3-(3-hydroxy-2-methylpropoxy)-1-methyl-1H-pyrazol-5-yl)octahydropentalen-2-yl)-1-methyl-1H-imidazole-5-carboxamide]", "values": [
      {"measurement": "EC50", "value": "< 10", "unit": "nM"}
    ]},
    {"compound": "Cn1cnc(C2CC3CC(O)(c4c(F)c(OCC(C)(C)O)nn4C)CC3C2)c1C(=O)Nc1ccc(F)c(Cl)c1", "note": "(stereo not shown) [Example 212, N-(3-Chloro-4-fluorophenyl)-4-(5-(4-fluoro-3-(2-hydroxy-2-methylpropoxy)-1-methyl-1H-pyrazol-5-yl)-5-hydroxyoctahydropentalen-2-yl)-1-methyl-1H-imidazole-5-carboxamide]", "values": [
      {"measurement": "EC50", "value": "< 10", "unit": "nM"}
    ]},
    {"compound": "Cn1cnc(C2CC3CC(O)(c4c(F)c(OCCO)nn4C)CC3C2)c1C(=O)Nc1ccc(F)c(Cl)c1", "note": "(stereo not shown) [Example 213, N-(3-Chloro-4-fluorophenyl)-4-(5-(4-fluoro-3-(2-hydroxyethoxy)-1-methyl-1H-pyrazol-5-yl)-5-hydroxyoctahydropentalen-2-yl)-1-methyl-1H-imidazole-5-carboxamide]", "values": [
      {"measurement": "EC50", "value": "< 10", "unit": "nM"}
    ]},
    {"compound": "Cn1cnc(C2CC3CC(O)(c4cc(NCC(C)(C)O)nn4C)CC3C2)c1C(=O)Nc1ccc(F)c(Cl)c1", "note": "(stereo not shown) [Example 214, N-(3-Chloro-4-fluorophenyl)-4-(5-hydroxy-5-(3-((2-hydroxy-2-methylpropyl)amino)-1-methyl-1H-pyrazol-5-yl)octahydropentalen-2-yl)-1-methyl-1H-imidazole-5-carboxamide]", "values": [
      {"measurement": "EC50", "value": "< 10", "unit": "nM"}
    ]},
    {"compound": "CCn1nc(NCC(C)(C)O)c(F)c1C1(O)CC2CC(c3ncn(C)c3C(=O)Nc3ccc(F)c(Cl)c3)CC2C1", "note": "(stereo not shown) [Example 215, N-(3-Chloro-4-fluorophenyl)-4-(5-(1-ethyl-4-fluoro-3-((2-hydroxy-2-methylpropyl)amino)-1H-pyrazol-5-yl)-5-hydroxyoctahydropentalen-2-yl)-1-methyl-1H-imidazole-5-carboxamide]", "values": [
      {"measurement": "EC50", "value": "< 10", "unit": "nM"}
    ]},
    {"compound": "CC(C)n1nc(NCC(C)(C)O)c(F)c1C1(O)CC2CC(c3ncn(C)c3C(=O)Nc3ccc(F)c(Cl)c3)CC2C1", "note": "(stereo not shown) [Example 216, N-(3-Chloro-4-fluorophenyl)-4-(5-(4-fluoro-3-((2-hydroxy-2-methylpropyl)amino)-1-isopropyl-1H-pyrazol-5-yl)-5-hydroxyoctahydropentalen-2-yl)-1-methyl-1H-imidazole-5-carboxamide]", "values": [
      {"measurement": "EC50", "value": "< 10", "unit": "nM"}
    ]},
    {"compound": "CC(CO)Nc1cc(C2(O)CC3CC(c4ncn(C)c4C(=O)Nc4ccc(F)c(Cl)c4)CC3C2)n(C)n1", "note": "(stereo not shown) [Example 217, N-(3-Chloro-4-fluorophenyl)-4-(5-hydroxy-5-(3-((1-hydroxypropan-2-yl)amino)-1-methyl-1H-pyrazol-5-yl)octahydropentalen-2-yl)-1-methyl-1H-imidazole-5-carboxamide]", "values": [
      {"measurement": "EC50", "value": "< 10", "unit": "nM"}
    ]},
    {"compound": "Cn1cnc(C2CC3CC(O)(c4cc(OCC(C)(O)CO)nn4C)CC3C2)c1C(=O)Nc1ccc(F)c(Cl)c1", "note": "(stereo not shown) [Example 218, N-(3-Chloro-4-fluorophenyl)-4-(5-(3-(2,3-dihydroxy-2-methylpropoxy)-1-methyl-1H-pyrazol-5-yl)-5-hydroxyoctahydropentalen-2-yl)-1-methyl-1H-imidazole-5-carboxamide]", "values": [
      {"measurement": "EC50", "value": "< 10", "unit": "nM"}
    ]},
    {"compound": "CC(N)C(=O)Nc1cc(C2(O)CC3CC(c4ncn(C)c4C(=O)Nc4ccc(F)c(Cl)c4)CC3C2)n(C)n1", "note": "(stereo not shown) [Example 219, 4-(5-(3-(2-Aminopropanamido)-1-methyl-1H-pyrazol-5-yl)-5-hydroxyoctahydropentalen-2-yl)-N-(3-chloro-4-fluorophenyl)-1-methyl-1H-imidazole-5-carboxamide]", "values": [
      {"measurement": "EC50", "value": "< 10", "unit": "nM"}
    ]},
    {"compound": "CC(C)C(N)C(=O)Nc1cc(C2(O)CC3CC(c4ncn(C)c4C(=O)Nc4ccc(F)c(Cl)c4)CC3C2)n(C)n1", "note": "(stereo not shown) [Example 220, 4-(5-(3-(2-Amino-3-methylbutanamido)-1-methyl-1H-pyrazol-5-yl)-5-hydroxyoctahydropentalen-2-yl)-N-(3-chloro-4-fluorophenyl)-1-methyl-1H-imidazole-5-carboxamide]", "values": [
      {"measurement": "EC50", "value": "< 10", "unit": "nM"}
    ]},
    {"compound": "CC(C)Cn1nc(OCC(C)(C)O)cc1C1(O)CC2CC(c3ncn(C)c3C(=O)Nc3ccc(F)c(Cl)c3)CC2C1", "note": "(stereo not shown) [Example 221, N-(3-Chloro-4-fluorophenyl)-4-(5-hydroxy-5-(3-(2-hydroxy-2-methylpropoxy)-1-isobutyl-1H-pyrazol-5-yl)octahydropentalen-2-yl)-1-methyl-1H-imidazole-5-carboxamide]", "values": [
      {"measurement": "EC50", "value": "< 10", "unit": "nM"}
    ]},
    {"compound": "CCOC(=O)Oc1cc(C2(O)CC3CC(c4ncn(C)c4C(=O)Nc4ccc(F)c(Cl)c4)CC3C2)n(C)n1", "note": "(stereo not shown) [Example 222, 5-(5-(5-((3-Chloro-4-fluorophenyl)carbamoyl)-1-methyl-1H-imidazol-4-yl)-2-hydroxyoctahydropentalen-2-yl)-1-methyl-1H-pyrazol-3-yl ethyl carbonate]", "values": [
      {"measurement": "EC50", "value": "< 10", "unit": "nM"}
    ]},
    {"compound": "O=C(Nc1ccc(F)c(Cl)c1)c1[nH]cnc1C1CC2CC(O)CC2C1", "note": "(stereo not shown) [Example 223]", "values": [
      {"measurement": "EC50", "value": "50 to 500", "unit": "nM"}
    ]}
  ]
}
